Measured values published in article PMC5031696, “Synthesis, Biodistribution and In vitro Evaluation of Brain Permeable High Affinity Type 2 Cannabinoid Receptor Agonists [^11C]MA2 and [^18F]MA3” (Frontiers in Neuroscience, 2016).

Assay: biodistribution studies in male NMRI mice
Format: in vivo, mouse
Details: mouse, in vivo; for % ID bladder + urine / % ID blood / % ID bone / % ID heart / % ID intestines / % ID kidneys / % ID liver / % ID lungs / % ID pancreas / % ID spleen / % ID stomach / SUV blood / SUV bone / SUV brain / SUV heart / SUV kidneys / SUV liver / SUV lungs / SUV pancreas / SUV spleen / % ID brain: iv
Protocol: The tissue distribution and kinetics of [^11C]MA2 and [^18F]MA3 were studied in male NMRI mice at 2, 10, 30, and 60 min post injection of the tracer. The results of the biodistribution studies are presented in Table 1 ([^11C]MA2) and Table 2 ([^18F]MA3) as percentage of injected dose (% ID) and standard uptake value (SUV).
The biodistribution of [^11C]MA2 and [^18F]MA3 was studied in normal male Naval Medical Research Institute (NMRI) mice. A solution of HPLC-purified [^11C]MA2 or [^18F]MA3 was diluted with saline to obtain an ethanol concentration < 10%. Mice were anesthetized with isoflurane (2% in oxygen) and injected intravenously (i.v.) with [^11C]MA2 (~ 9.25 MBq) or [^18F]MA3 (~ 0.92 MBq) via a lateral tail vein. The mice were sacrificed by decapitation at 2, and 60 min post injection (for [^11C]MA2, n = 4) and at 2, 10, 30, or 60 min post injection (for [^18F]MA3, n = 3 or 4 per time point) and dissected. Blood, organs, and other body parts were collected in tared tubes and the radioactivity in each tube was measured using an automated gamma counter. The tubes containing selected organs and blood were weighed. For calculation of total radioactivity in blood, blood mass was assumed to be 7% of the body mass (Fritzberg et al., [1982]). Quantitative data are expressed as mean ± standard deviation (SD). Means were compared using an unpaired two-tailed student t-test. Values were considered statistically significant for P ≤ 0.05.

blood % ID 2 min/60 min ratio (male, NMRI): 5.2
brain % ID 2 min/60 min ratio (male, NMRI): 9.2
% ID bladder + urine (male, NMRI, 2 min): 0.2 ± 0.2 % ID
% ID blood (male, NMRI, 2 min): 5.4 ± 0.4 % ID
% ID bone (male, NMRI, 2 min): 5.3 ± 1.2 % ID
% ID heart (male, NMRI, 2 min): 1.2 ± 0.1 % ID
% ID intestines (male, NMRI, 2 min): 9.4 ± 3.9 % ID
% ID kidneys (male, NMRI, 2 min): 9.0 ± 1.2 % ID
% ID liver (male, NMRI, 2 min): 31.4 ± 8.4 % ID
% ID lungs (male, NMRI, 2 min): 1.2 ± 0.3 % ID
% ID pancreas (male, NMRI, 2 min): 1.4 ± 0.3 % ID
% ID spleen (male, NMRI, 2 min): 0.4 ± 0.1 % ID
% ID stomach (male, NMRI, 2 min): 1.4 ± 0.2 % ID
SUV blood (male, NMRI, 2 min): 0.8 ± 0.1
SUV bone (male, NMRI, 2 min): 0.4 ± 0.1
SUV brain (male, NMRI, 2 min): 1.1 ± 0.1
SUV heart (male, NMRI, 2 min): 3.4 ± 0.3
SUV kidneys (male, NMRI, 2 min): 5.4 ± 0.4
SUV liver (male, NMRI, 2 min): 7.2 ± 2.0
SUV lungs (male, NMRI, 2 min): 2.8 ± 0.7
SUV pancreas (male, NMRI, 2 min): 3.0 ± 0.5
SUV spleen (male, NMRI, 2 min): 5.1 ± 0.6
% ID bladder + urine (male, NMRI, 10 min): 0.4 ± 0.0 % ID
% ID blood (male, NMRI, 10 min): 2.2 ± 0.3 % ID
% ID bone (male, NMRI, 10 min): 3.5 ± 0.2 % ID
% ID brain (male, NMRI, 10 min): 1.0 ± 0.1 % ID
% ID heart (male, NMRI, 10 min): 0.3 ± 0.0 % ID
% ID intestines (male, NMRI, 10 min): 30.8 ± 6.1 % ID
% ID kidneys (male, NMRI, 10 min): 1.6 ± 0.2 % ID
% ID liver (male, NMRI, 10 min): 26.1 ± 3.4 % ID
% ID lungs (male, NMRI, 10 min): 0.5 ± 0.0 % ID
% ID pancreas (male, NMRI, 10 min): 0.4 ± 0.1 % ID
% ID spleen (male, NMRI, 10 min): 0.3 ± 0.1 % ID
% ID stomach (male, NMRI, 10 min): 0.5 ± 0.0 % ID
SUV blood (male, NMRI, 10 min): 0.3 ± 0.0
SUV bone (male, NMRI, 10 min): 0.3 ± 0.0
SUV brain (male, NMRI, 10 min): 0.5 ± 0.0
SUV heart (male, NMRI, 10 min): 0.6 ± 0.0
SUV kidneys (male, NMRI, 10 min): 1.1 ± 0.1
SUV liver (male, NMRI, 10 min): 4.7 ± 0.7
SUV lungs (male, NMRI, 10 min): 0.7 ± 0.1
SUV pancreas (male, NMRI, 10 min): 0.8 ± 0.0
SUV spleen (male, NMRI, 10 min): 0.5 ± 0.0
% ID bladder + urine (male, NMRI, 30 min): 1.7 ± 0.3 % ID
% ID blood (male, NMRI, 30 min): 1.2 ± 0.1 % ID
% ID bone (male, NMRI, 30 min): 1.6 ± 0.5 % ID
% ID brain (male, NMRI, 30 min): 0.3 ± 0.1 % ID
% ID heart (male, NMRI, 30 min): 0.1 ± 0.0 % ID
% ID intestines (male, NMRI, 30 min): 56.2 ± 5.4 % ID
% ID kidneys (male, NMRI, 30 min): 1.0 ± 0.2 % ID
% ID liver (male, NMRI, 30 min): 17.3 ± 6.7 % ID
% ID lungs (male, NMRI, 30 min): 0.2 ± 0.0 % ID
% ID pancreas (male, NMRI, 30 min): 0.2 ± 0.1 % ID
% ID spleen (male, NMRI, 30 min): 0.1 ± 0.0 % ID
% ID stomach (male, NMRI, 30 min): 0.8 ± 1.0 % ID
SUV blood (male, NMRI, 30 min): 0.2 ± 0.0
SUV bone (male, NMRI, 30 min): 0.1 ± 0.0
SUV brain (male, NMRI, 30 min): 0.2 ± 0.0
SUV heart (male, NMRI, 30 min): 0.4 ± 0.1
SUV kidneys (male, NMRI, 30 min): 0.6 ± 0.1
SUV liver (male, NMRI, 30 min): 3.7 ± 1.4
SUV lungs (male, NMRI, 30 min): 0.4 ± 0.1
SUV pancreas (male, NMRI, 30 min): 0.4 ± 0.1
SUV spleen (male, NMRI, 30 min): 0.5 ± 0.3
% ID blood (male, NMRI, 60 min): 1.0 ± 0.3 % ID
% ID bone (male, NMRI, 60 min): 2.2 ± 0.3 % ID
% ID brain (male, NMRI, 60 min): 0.1 ± 0.0 % ID
% ID heart (male, NMRI, 60 min): 0.1 ± 0.0 % ID
% ID kidneys (male, NMRI, 60 min): 0.7 ± 0.3 % ID
% ID liver (male, NMRI, 60 min): 10.2 ± 5.2 % ID
% ID lungs (male, NMRI, 60 min): 0.1 ± 0.0 % ID
% ID pancreas (male, NMRI, 60 min): 0.1 ± 0.0 % ID
% ID spleen (male, NMRI, 60 min): 0.03 ± 0.01 % ID
% ID stomach (male, NMRI, 60 min): 4.4 ± 5.1 % ID
SUV blood (male, NMRI, 60 min): 0.1 ± 0.0
SUV bone (male, NMRI, 60 min): 0.2 ± 0.0
SUV brain (male, NMRI, 60 min): 0.1 ± 0.0
SUV heart (male, NMRI, 60 min): 0.3 ± 0.0
SUV kidneys (male, NMRI, 60 min): 0.5 ± 0.1
SUV lungs (male, NMRI, 60 min): 0.3 ± 0.1
SUV pancreas (male, NMRI, 60 min): 0.3 ± 0.1
SUV spleen (male, NMRI, 60 min): 0.5 ± 0.1
accumulation in the spleen: no accumulation
Structure (SMILES): Fc1ccc(-c2noc(CCCNc3cnc4ccc(OCC[18F])cc4c3)n2)c(Cl)c1 [[^18F]MA3]
